The data set is described as follows: logP. In kind it is physicochemical. To be noted: intermediate amines of formula (II).

The molecule `CC1Cc2ccccc2C1NC1CC1` (stereo not shown) [Example 171] showed a logP of 0.81. Regarding `COc1cc2c(cc1OC)C(NC1CC1)C(C)(C)CO2` (stereo not shown) [Example 167], the logP amounted to 1.22.

`CC1(C)CCC(NC2CC2)c2ccccc21` (racemic) [Example 178] had a logP of 1.26.

`CC1(C)CC(NC2CC2)c2ccccc21` (stereo not shown) [Example 174] returned a logP of 1.15. The value for `c1ccc2c(c1)OCCC2NC1CC1` (stereo not shown) [Example 175] was 0.32. `Clc1ccc2c(c1)C(NC1CC1)CCO2` (stereo not shown) [Example 176] came in with a logP of 0.83.

For the molecule `c1ccc2c(c1)SCCC2NC1CC1` (racemic) [Example 177], the logP came to 0.67.

Values taken from US9102588B2, “Fungicide N-cycloalkyl-N-bicyclic-carboxamide derivatives” (priority 2007, dated 2015).
